From US12384806B2, “Isopaucifloral F phosphate compound and pharmaceutical use thereof” (FUDAN UNIVERSITY, priority 2020, dated 2025)

Key:
[1] = system: mouse osteoblast precursor cells MC3T3-E1 Subclone 14; test: Differentiation-promoting effect, ALP enzyme activity assay; assay type: cell-based; details: for ALP enzyme activity relative values (experimental group/blank group): 6th day
From the text: (2) Study on the differentiation-promoting effect of compounds on mouse osteoblast precursor cells MC3T3-E1 Subclone 14 (see Table 2): MC3T3-E1 subclone 14 cells were digested with pancreatin and collected and then seeded into a 6-well plate at 4×10^4/well. […] The administration concentrations of the compounds were 10^−4˜10^−9 M, respectively; and the administration concentration of the positive control drug group genistein GEN was 10^−6 M, a concentration at which it had the highest osteogenesis promoting ability as reported in the literature. On the 6th day of administration, each well was washed twice with PBS, 150 uL of Western and IP cell lysate (with no protein inhibitor, commercially available from Beyotime) was then added to lyse the cells. This operation was performed on ice. 50 uL of cell lysate was diluted to 250 uL with PBS. 50 uL of dilution was additionally transferred to a 96-well plate for an ALP enzyme activity assay. The absorbance of each well in the 96-well plate was measured with a microplate reader at 405 nm.

osteoblasts = test: Formation of calcium nodules in osteoblasts (Alizarin Red); assay type: cell-based, mouse; details: 15th day
Protocol: (3) Study on the effect of target compounds on the formation of calcium nodules in osteoblasts (see FIG. 1 and Table 3 for details): after being digested, the cells were seeded into a 6-well plate at 4×10^4/well. […] The administration concentrations of the compounds were 10^−4˜10^−9 M, respectively; and the concentration of genistein is 10^−6 M. On the 15th day of administration, the medium was aspirated, each well was then washed twice with PBS, the cells were then fixed with 95% ethanol for 10 minutes and rinsed twice with double distilled water. 2 mL of a 0.1% Alizarin Red-Tris. HCl solution (PH=8.3) was added to each well, the cells were incubated at 37° C. for 30 minutes, then rinsed with double distilled water for several times, dried, and mounted. The formation of calcium nodules was further observed by taking pictures under a 40× microscope. Afterwards, 1 mL of a 10% cetylpyridinium chloride solution was added to each well, and the incubation was carried out for 30 minutes to release the Alizarin Red staining. The solution was transferred to a 96-well plate at 200 uL per well, the absorbance was measured at 562 nm using a microplate reader, and a quantitative analysis of calcium nodules was performed.

[2] = system: mouse osteoblast precursor cells MC3T3-E1 Subclone 14; test: Proliferation-promoting effect by MTT assay; assay type: cell-based; details: for Proliferation Rate: 6th day, MTT
Protocol: Genistein and estradiol were used as positive control groups. MC3T3-E1 Subclone 14 was cultured using the α-MEM medium containing 10% FBS in a constant temperature incubator at 37° C. with 5% CO2. The MC3T3-E1 Subclone 14 cells in logarithmic growth phase and in good condition were digested with addition of an appropriate amount of trypsin (commercially available from GIBCO), and the cells were collected. The cells were resuspended in the α-MEM medium containing 10% FBS, and seeded on a 96-well plate at an amount of 2000 cells per well. After cell adhesion, the medium was changed to the α-MEM medium containing 10% FBS of different concentrations of compounds at 200 μL per well. The cells with the culture fluid containing 0.2% DMSO added thereto were used as a negative control group of the medium. The medium was added to the wells without seeded cells as a blank control group. Six replicate wells were set for each concentration. The medium was changed once every 2 days, and on the 6th day of administration, a 20 μL MTT/PBS solution at 5 mg/mL was added to the above 96-well plate, and the incubation was continued for 4 hours. After the time point, the liquid was carefully aspirated and 150 μL of DMSO was added to each well to completely dissolve the purple crystal formazan formed by live cells and MTT. The optical density (OD) value was measured at 490 nm with a microplate reader. The proliferation rate was calculated according to the following formula: Proliferation rate=[(the average OD value of the administration group−the average OD value of the blank group)/(the average OD value of the culture fluid control group−the average OD value of the blank group)].

[3] = system: mouse mononuclear macrophages RAW264.7; test: Bone resorption inhibition: TRAP-positive multinucleated osteoclast count; assay type: cell-based; details: 5 days; for Number of Osteoclasts (cell): control group 117
Protocol: After being cultured for 5 days, the cells were stained with a tartrate-resistant acid phosphatase TRAP incubation solution, mounted with glycerol gelatin, and observed under light microscope to count stained TRAP-positive multinucleated cells (as shown in FIG. 2). The inhibition rate of the administrated drug on the number of TRAP-positive multinucleated cells is (nTRAP-positive multinucleated osteoclasts in the negative control group−nTRAP-positive multinucleated osteoclasts in the drug administration group)/nTRAP-positive multinucleated osteoclasts in the negative control group×100%.

[4] = Determination of lipid-water partition coefficients (n-octanol/water, HPLC); assay type: physicochemical; details: 37° C.
Protocol: (1) Determination of lipid-water partition coefficients: a standard curve was first made. […] Their respective solution was subjected to the HPLC sample injection analysis. HPLC conditions were: mobile phase: 5%˜95% acetonitrile/water, gradient elution, a flow rate of 0.6 mL/min, a sample injection volume of 10 μL, a detection wavelength of 254/280 nm, run for 20 min. The retention time and peak area were recorded, and the standard curve was obtained by regressing the concentration and the peak area.
Moreover, 10 mL of water and 10 mL of n-octanol were taken into a 25 mL eggplant-shaped flask and stirred for 24 hours until the two phases were saturated with each other. The mixed solution was then transferred to a separatory funnel. Let it stand for liquid separation. 1 mL of the upper layer (saturated n-octanol layer) was taken, about 2 mg of the compound to be tested was added to vortex for 5 minutes to fully dissolve, and 1 mL of saturated aqueous phase was additionally taken and mixed with the saturated n-butanol phase in which the compound was dissolved. After vortexing for 5 minutes and oscillation for 24 hours in a water bath at 37° C., centrifugation was performed at 3500 rpm for 15 minutes. The upper n-octanol layer and the lower aqueous layer were respectively taken for the sample injection analysis under HPLC conditions. […]

estrogen receptor ERβ = estrogen receptor ERβ (Homo sapiens, UniProt Q92731); test: Estrogen receptor agonism (earlier experiments of the research team)
Chain of estrogen receptor ERβ (Q92731 whole entry): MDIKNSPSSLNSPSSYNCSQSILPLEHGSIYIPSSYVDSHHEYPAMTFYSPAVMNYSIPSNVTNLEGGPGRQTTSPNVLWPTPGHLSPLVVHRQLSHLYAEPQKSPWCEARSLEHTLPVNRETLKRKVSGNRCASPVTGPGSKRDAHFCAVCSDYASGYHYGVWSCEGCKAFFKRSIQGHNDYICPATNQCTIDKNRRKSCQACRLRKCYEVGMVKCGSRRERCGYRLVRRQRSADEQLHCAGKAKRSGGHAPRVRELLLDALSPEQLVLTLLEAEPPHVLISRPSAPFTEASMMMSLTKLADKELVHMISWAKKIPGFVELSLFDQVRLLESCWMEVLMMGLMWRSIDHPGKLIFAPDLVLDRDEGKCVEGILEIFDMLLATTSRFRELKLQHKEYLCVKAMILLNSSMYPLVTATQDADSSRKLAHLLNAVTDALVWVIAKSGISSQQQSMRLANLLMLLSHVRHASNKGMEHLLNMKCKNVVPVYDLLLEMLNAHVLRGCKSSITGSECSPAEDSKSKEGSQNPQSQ

[5] = Metabolic stability in human liver microsomes; assay type: in vitro ADME; details: 37° C.
Protocol: Experimental method: the incubation system comprising human liver microsomes, cofactors, and PBS was pre-incubated at 37° C. for 3 minutes, and a substrate was added to start the reaction. Sampling was performed at 0, 1, 5, 10, 15, 20, 30, and 60 minutes after the start of the reaction, and an appropriate terminator was added to terminate the reaction. Sample treatment (n=3): appropriate internal standards were added to each; after vortexing, centrifugation was performed at a high speed, the supernatant was taken, and the substrate was detected by employing HPLC-MS/MS. The peak area at a time point 0 min was taken as 100%. Peak areas at other time points were converted to the remaining percentage, the natural logarithm of the remaining percentage at each time point versus incubation time was plotted, and a slope (−k) was calculated by linear regression, and then CLint (mL·min^−1·mg^−1) was calculated based on the inherent clearance (CLint)=(k×the volume of incubation solution)/mass of liver microsomes.

SMILES | ALP enzyme activity relative values (experimental group/blank group) ([1]; 10^−4 M) | ALP enzyme activity relative values (experimental group/blank group) ([1]; 10^−5 M) | ALP enzyme activity relative values (experimental group/blank group) ([1]; 10^−6 M) | ALP enzyme activity relative values (experimental group/blank group) ([1]; 10^−7 M) | ALP enzyme activity relative values (experimental group/blank group) ([1]; 10^−8 M) | ALP enzyme activity relative values (experimental group/blank group) ([1]; 10^−9 M) | Relative values of calcium nodule amount (experimental group/blank group) (osteoblasts; 10^−8 M) | Proliferation Rate ([2]; 10^−4 M) | Proliferation Rate ([2]; 10^−5 M) | Proliferation Rate ([2]; 10^−6 M) | Proliferation Rate ([2]; 10^−7 M) | Proliferation Rate ([2]; 10^−8 M) | Proliferation Rate ([2]; 10^−9 M) | Relative values of calcium nodule amount (experimental group/blank group) (osteoblasts; 10^−6 M) | Number of Osteoclasts (cell) ([3]; 10^−6 M) | Number of Osteoclasts (cell) ([3]; 10^−8 M) | other results
CCOP(=O)(OCC)OC1=C(c2cc(OC)cc(OC)c2)C(c2ccc(OP(=O)(OCC)OCC)cc2)c2c(OC)cc(OC)cc21 (stereo not drawn) [7a] | 2.362 ± 0.04 | 1.440 ± 0.31 | 1.023 ± 0.05 | 0.877 ± 0.01 | 0.860 ± 0.01 | 0.861 ± 0.05 |  |  |  |  |  |  |  |  |  |  | 
CCOP(=O)(OCC)OC1=C(c2cc(OC)cc(OC)c2)C(c2ccc(OC)cc2)c2c(OC)cc(OC)cc21 (stereo not drawn) [7b] | 0.919 ± 0.04 | 0.986 ± 0.17 | 0.993 ± 0.01 | 1.195 ± 0.02 | 1.097 ± 0.07 | 0.899 ± 0.11 |  |  |  |  |  |  |  |  |  |  | 
C[C@]12CC[C@@H]3c4ccc(O)cc4CC[C@H]3[C@@H]1CC[C@@H]2O [E2, estradiol] |  |  |  |  | 1.050 ± 0.02 |  | 1.007 ± 0.02 | 0.05 ± 0.002 | 0.82 ± 0.003 | 1.07 ± 0.019 | 1.08 ± 0.003 | 1.07 ± 0.005 | 1.06 ± 0.003 |  |  |  | 
O=c1c(-c2ccc(O)cc2)coc2cc(O)cc(O)c12 [GEN, genistein] |  |  | 1.341 ± 0.01 |  |  |  |  | 0.02 ± 0.0003 | 0.71 ± 0.007 | 1.05 ± 0.019 | 0.99 ± 0.003 | 1.01 ± 0.005 | 1.03 ± 0.003 | 1.028 ± 0.03 |  |  | 
O=C1c2cc(O)cc(O)c2[C@@H](c2ccc(O)cc2)[C@@H]1c1cc(O)cc(O)c1 [Isopaucifloral F, isopaucifloral F] | 0.732 ± 0.03 | 0.951 ± 0.04 | 0.954 ± 0.02 | 1.135 ± 0.06 | 1.029 ± 0.11 | 0.864 ± 0.05 | 0.917 ± 0.03 | 1.24 ± 0.028 | 1.06 ± 0.014 | 1.02 ± 0.024 | 0.98 ± 0.020 | 0.98 ± 0.045 | 0.95 ± 0.016 | 0.932 ± 0.03 | 85 cell | 102 cell | Relative values of calcium nodule amount (experimental group/blank group) (osteoblasts; 10^−4 M): 0.982 ± 0.04; Relative values of calcium nodule amount (experimental group/blank group) (osteoblasts; 10^−5 M): 0.915 ± 0.03; Relative values of calcium nodule amount (experimental group/blank group) (osteoblasts; 10^−7 M): 0.964 ± 0.03; Relative values of calcium nodule amount (experimental group/blank group) (osteoblasts; 10^−9 M): 0.916 ± 0.03; Relative Inhibition Rates (%) ([3]; 10^−4 M): 28.2%; Number of Osteoclasts (cell) ([3]; 10^−4 M): 84 cell; Relative Inhibition Rates (%) ([3]; 10^−6 M): 27.4%; Relative Inhibition Rates (%) ([3]; 10^−8 M): 12.8%; log P [4]: 1.34; ALP enzyme activity, times those of the control group ([1]; highest value, concentration not given): 1.14 times; ALP enzyme activity increased by ([1]; versus control group, concentration not given): 13.5%; activity at estrogen receptor ERβ (estrogen receptor ERβ): selective agonist; proliferation rates ([2]; highest value of each compound, concentration not given): 124%; CLint(liver) [5]: 123.4 mL/min/kg; T1/2 [5]: 10.1 min
O=C(c1ccc(OCCN2CCCCC2)cc1)c1c(-c2ccc(O)cc2)sc2cc(O)ccc12 [Raloxifene] |  |  |  |  |  |  |  |  |  |  |  |  |  |  | 64 cell | 67 cell | inhibition at 1 µM ([3]; Mus musculus, RAW264.7, 120 h, 10^−6 M, read-out: Relative Inhibition Rates (%)): 45.3%; inhibition at 0.01 µM ([3]; Mus musculus, RAW264.7, 120 h, 10^−8 M, read-out: Relative Inhibition Rates (%)): 42.7%
